Results reported in patent US20090042988A1, “PHARMACEUTICAL COMPOSITIONS CONTAINING A MEGLITINIDE COMPOUND FOR PREVENTING HEPATIC FIBROSIS” (KURUME UNIVERSITY, priority 2006, published 2009).
Several values for one entry are separate records, joined by “and”; a condition that tells them apart may be missing. Equal values may be shown once. Entries after “also recorded” stand apart in the source; their conditions may differ.

Tests used:
fatty liver = assay: Degree of fatty liver by liver/spleen ratio of CT in NASH patients with diabetes given nateglinide; type: in vivo
Source text: 5 patients were selected as the subjects, who had clinical features of fatty liver found by the abdominal ultrasound or the abdominal CT, had negative test results in various virus markers and autoantibody, could deny a drinking history or a drug history; were diagnosed as NASH by a liver biopsy based on Brunt's scale (Am J Gastroenterol. 1999 94: 2467-2474), and had diabetes on which diet and exercise therapies could not sufficiently produce the therapeutic effect. […] Am J Gastroenterol. 1999 94: 2467-2474).

[1] = twelve-week administration; 53 fatty liver cases with diabetes or 5 cases where GPT>GOT; cited from earlier work
[2] = Diabetic indexes (HbA1c, fasting blood glucose, blood glucose 2 hours after glucose tolerance test) in NASH patients with diabetes given nateglinide; type: in vivo; settings: per patient, Case 1-5
Description: In 0th week and 12th week or 16 week, as the diabetic indexes, the fasting blood glucose, the blood glucose 2 hours after the glucose tolerance test, and hemoglobin A1c, as the evaluation of the liver, the degree of fatty liver determined by liver/spleen ratio of CT and liver biopsy tissues for each case were histologically analyzed to score hepatocellular degeneration, pericellular fibrosis, perivenular fibrosis, portal fibrosis or the like (Brunt E M et al. Am J Gastroenterol. 1999 94: 2467-2474).

liver biopsy tissues [3] = settings: 16 weeks, 5 patients with diabetes diagnosed as NASH (Non-patent Literature 10); cited from earlier work
ATP-citrate lyase = settings: nateglinide administered before glucose load; diabetic model animal; cited from earlier work
liver biopsy tissues [4] = assay: Histological scoring of liver biopsy tissues (Brunt's scale) in NASH patients with diabetes given nateglinide;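 note: patients dosed orally with 90 mg thrice daily ahead of meals over 16 weeks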
Description: Meanwhile, the degree of hepatic fibrosis herein mentioned is evaluated by the steps comprising of treating the tissue section of liver biopsy samples with the method of specifically staining the fibrillary element such as Masson's trichrome stain, Sweet's reticulin stain or Azan stain; and then determining the quantity thereof per distinctive fibrosis images or evaluating them as stages. As one example, since hepatocellular necrosis or degeneration in NASH often occurs in areas of zone 3, the portal fibrosis is evaluated corresponding to the degree thereof on a scale of 0 to 4 when pericellular fibrosis, perivenular fibrosis or pathology of the region corresponding to the areas of zone 3 is advanced. Further, the degree is comprehensively classified as: Stage 1: perivascular/perisinusoidal/pericellular fibrosis partially or widely exists centering on zone 3; Stage 2: portal fibrosis partially or widely exists in addition to Stage 1; Stage 3: bridging fibrosis partially or widely exists; and Stage 4: cirrhosis.
Hepatocellular degeneration is determined as ballooning of hepatocytes after treating the section of liver biopsy tissues with hematoxylin-eosin staining. Hepatocellular degeneration is evaluated based on the number of the cells observed in the visual field (Non-patent Literature 11).

[5] = Δ: value before admin. − value after admin., per patient, Case 1-5
[6] = after nateglinide 90 mg orally three times per day (12th or 16th week)
[7] = Δ: value before admin. − value after admin., 0th and 12th weeks
[8] = after nateglinide administration, Brunt score, per patient, Case 1-5
[9] = after nateglinide administration, score, per patient, Case 1-5

In the case of `CC(C)[C@H]1CC[C@H](C(=O)N[C@H](Cc2ccccc2)C(=O)O)CC1` [nateglinide, (−)-N-(trans-4-isopropylcyclohexanecarbonyl)-D-phenylalanine], the “CT score liver/spleen ratio” value (fatty liver; after nateglinide administration, per patient, Case 1-5) is reported as 1 and 0.9 and 0.95 and 0.8 and 1.05, the “improvement effect on fatty liver” value (fatty liver; cases whose diabetic indexes were not improved) is reported as “an improvement effect on fatty liver was low” and the “Δ CT score liver/spleen ratio” value (fatty liver; [5]) is reported as −0.09 and −0.335 and −0.06 and −0.2 and −0.25. For the same molecule, the “GOT and GPT (index of hepatic injury)” value [1] was “statistically significantly inhibits GOT and GPT”, the “BG 2 hrs. (blood glucose 2 hours after the glucose tolerance test)” value [2, 6] was 199 mg/dL and 105 mg/dL and 238 mg/dL and 337 mg/dL and 118 mg/dL and the fasting blood glucose [2, 6] was 106 mg/dL and 119 mg/dL and 115 mg/dL and 163 mg/dL and 100 mg/dL. For the same molecule, the HbA1c ([2]; after nateglinide 90 mg orally three times per day before each meal (12th or 16th week)) was 5.5% and 5.6% and 6.2% and 7.1% and 5%, the “Δ BG 2 hrs. (blood glucose 2 hours after the glucose tolerance test)” value [2, 7] was 17 mg/dL and 89 mg/dL and 30 mg/dL and 88 mg/dL and 48 mg/dL and the “Δ HbA1c” value [2, 7] was 0.1% (2×) and −0.1% and 0.5% and 0.8%. The “Δ fasting blood glucose” value [2, 7] was 20 mg/dL and -6 mg/dL and -5 mg/dL and 7 mg/dL and 39 mg/dL, the “fatty liver, hepatic inflammation, hepatic degeneration, hepatic fibrosis by liver biopsies before and after administration” value (liver biopsy tissues [3]) was “the fatty liver diminished, and hepatic inflammation, hepatic degeneration or hepatic fibrosis was improved” and the “glucose-induced expression of ATP-citrate lyase in the liver” value (ATP-citrate lyase) was “inhibits glucose-induced expression of ATP-citrate lyase”. The grade (liver biopsy tissues [4]; [8]) was 1 (2×) and 2 (2×) and 1.5, the stage (liver biopsy tissues [4]; [8]) was 2 (2×) and 1 (2×) and 1.5 and the hepatocellular degeneration (liver biopsy tissues [4]; [9]) was 1 (4×) and 2. The pericellular fibrosis (liver biopsy tissues [4]; [9]) was 1 (4×) and 0, the perivenular fibrosis (liver biopsy tissues [4]; [9]) was 1 (4×) and 2 and the “portal area neutrophil infiltration” value (liver biopsy tissues [4]; [9]) was 0 (3×) and 1 (2×). For the same molecule, the portal fibrosis (liver biopsy tissues [4]; [9]) was 2 (2×) and 1 and 1.5 and 0.5, the portal vein inflammation (liver biopsy tissues [4]; [9]) was 0 (4×) and 1 and the “improvement of fatty liver, hepatocellular degeneration, pericellular fibrosis, perivenular fibrosis or portal fibrosis” value (liver biopsy tissues [4]; cases whose diabetic indexes were improved by nateglinide) was “improvements were also observed”. The “improvement of hepatocellular degeneration, pericellular fibrosis, perivenular fibrosis or portal fibrosis” value (liver biopsy tissues [4]; cases whose diabetic indexes were not improved (Cases 1 and 3)) was “hepatic inflammation, degeneration or fibrosis thereof was improved; also recorded: almost the same improvements were observed”, the Δ grade (liver biopsy tissues [4]; [5]) was 1 (3×) and 0.5 and 0 and the Δ hepatocellular degeneration (liver biopsy tissues [4]; [5]) was 1 (3×) and 0 and 2. For the same molecule, the Δ pericellular fibrosis (liver biopsy tissues [4]; [5]) was 2 (2×) and 1 (3×), the Δ perivenular fibrosis (liver biopsy tissues [4]; [5]) was 1 and the “Δ portal area neutrophil infiltration” value (liver biopsy tissues [4]; [5]) was 0 (3×) and 1 (2×). The Δ portal fibrosis (liver biopsy tissues [4]; [5]) was 1 (2×) and 0.5 (2×) and 0, the “Δ portal vein inflammation” value (liver biopsy tissues [4]; [5]) was 1 (4×) and 2 and the Δ stage (liver biopsy tissues [4]; [5]) was 1 (2×) and 0 (2×) and 0.5.
